What was measured:
[1] = biological target: Serine/threonine-protein kinase PAK 1 (Homo sapiens) (UniProt Q13153); conditions: Compound concentration 1000.0 nM
[2] = biological target: Myosin light chain kinase (Homo sapiens) (UniProt Q32MK0); conditions: Compound concentration 1000.0 nM
[3] = biological target: Serine/threonine-protein kinase 4 (Homo sapiens) (UniProt Q13043); conditions: Compound concentration 1000.0 nM
[4] = biological target: Rho-associated protein kinase 2 (Homo sapiens) (UniProt O75116); conditions: Compound concentration 1000.0 nM
[5] = biological target: Tyrosine-protein kinase Blk (Homo sapiens) (UniProt P51451); conditions: Compound concentration 1000.0 nM
[6] = biological target: Serine/threonine-protein kinase D1 (Homo sapiens) (UniProt Q15139); conditions: Compound concentration 1000.0 nM
Chain of Serine/threonine-protein kinase D1 (Homo sapiens) (Q15139 whole entry): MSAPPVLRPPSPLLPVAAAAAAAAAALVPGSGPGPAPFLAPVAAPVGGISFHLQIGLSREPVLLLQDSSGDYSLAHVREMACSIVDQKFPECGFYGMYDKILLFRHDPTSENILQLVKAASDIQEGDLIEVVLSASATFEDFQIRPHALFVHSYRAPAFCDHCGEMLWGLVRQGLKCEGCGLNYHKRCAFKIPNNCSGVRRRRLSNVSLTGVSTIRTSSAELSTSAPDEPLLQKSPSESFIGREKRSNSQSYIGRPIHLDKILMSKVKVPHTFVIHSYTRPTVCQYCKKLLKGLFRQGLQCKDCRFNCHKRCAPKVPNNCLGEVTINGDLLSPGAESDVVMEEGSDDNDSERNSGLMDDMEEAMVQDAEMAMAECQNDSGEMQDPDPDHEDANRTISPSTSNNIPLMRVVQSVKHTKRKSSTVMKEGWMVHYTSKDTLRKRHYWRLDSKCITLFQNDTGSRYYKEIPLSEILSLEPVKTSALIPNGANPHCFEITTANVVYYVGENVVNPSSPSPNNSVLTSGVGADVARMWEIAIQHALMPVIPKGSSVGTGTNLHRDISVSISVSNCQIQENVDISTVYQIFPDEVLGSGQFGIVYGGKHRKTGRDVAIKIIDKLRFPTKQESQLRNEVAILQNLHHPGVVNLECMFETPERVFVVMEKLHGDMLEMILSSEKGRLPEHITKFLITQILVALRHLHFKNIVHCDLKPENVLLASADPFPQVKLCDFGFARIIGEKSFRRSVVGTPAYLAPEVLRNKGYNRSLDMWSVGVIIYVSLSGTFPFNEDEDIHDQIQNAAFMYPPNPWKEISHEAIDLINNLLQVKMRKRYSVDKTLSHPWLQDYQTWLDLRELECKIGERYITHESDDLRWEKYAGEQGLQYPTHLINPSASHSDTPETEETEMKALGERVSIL

[7] = biological target: Eukaryotic translation initiation factor 2-alpha kinase 1 (Homo sapiens) (UniProt Q9BQI3); conditions: Compound concentration 1000.0 nM
Chain of Eukaryotic translation initiation factor 2-alpha kinase 1 (Homo sapiens) (Q9BQI3 whole entry): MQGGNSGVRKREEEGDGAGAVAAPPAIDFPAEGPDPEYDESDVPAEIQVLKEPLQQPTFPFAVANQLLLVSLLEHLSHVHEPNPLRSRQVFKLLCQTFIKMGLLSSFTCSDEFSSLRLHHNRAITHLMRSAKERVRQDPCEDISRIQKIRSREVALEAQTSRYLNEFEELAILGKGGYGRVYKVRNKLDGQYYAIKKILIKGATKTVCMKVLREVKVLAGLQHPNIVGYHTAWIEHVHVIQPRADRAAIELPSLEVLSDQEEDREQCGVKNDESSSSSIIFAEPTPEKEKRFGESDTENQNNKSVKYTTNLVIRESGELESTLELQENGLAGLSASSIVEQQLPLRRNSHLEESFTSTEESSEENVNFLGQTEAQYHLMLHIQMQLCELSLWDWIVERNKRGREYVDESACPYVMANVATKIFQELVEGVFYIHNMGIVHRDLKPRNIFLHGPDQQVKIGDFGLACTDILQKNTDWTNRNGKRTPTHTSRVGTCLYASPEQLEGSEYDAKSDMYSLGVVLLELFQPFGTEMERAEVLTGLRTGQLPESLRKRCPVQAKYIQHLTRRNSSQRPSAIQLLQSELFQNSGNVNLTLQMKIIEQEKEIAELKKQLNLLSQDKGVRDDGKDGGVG

[8] = biological target: Insulin receptor-related protein (Homo sapiens) (UniProt P14616); conditions: Compound concentration 1000.0 nM
[9] = tested on: Epidermal growth factor receptor (Homo sapiens), P00533 [UNDEFINED MUTATION]; conditions: Compound concentration 1000.0 nM
[10] = biological target: Cyclin-dependent kinase 14 (Homo sapiens) (UniProt O94921); conditions: Compound concentration 1000.0 nM
Chain of Cyclin-dependent kinase 14 (Homo sapiens) (O94921 whole entry): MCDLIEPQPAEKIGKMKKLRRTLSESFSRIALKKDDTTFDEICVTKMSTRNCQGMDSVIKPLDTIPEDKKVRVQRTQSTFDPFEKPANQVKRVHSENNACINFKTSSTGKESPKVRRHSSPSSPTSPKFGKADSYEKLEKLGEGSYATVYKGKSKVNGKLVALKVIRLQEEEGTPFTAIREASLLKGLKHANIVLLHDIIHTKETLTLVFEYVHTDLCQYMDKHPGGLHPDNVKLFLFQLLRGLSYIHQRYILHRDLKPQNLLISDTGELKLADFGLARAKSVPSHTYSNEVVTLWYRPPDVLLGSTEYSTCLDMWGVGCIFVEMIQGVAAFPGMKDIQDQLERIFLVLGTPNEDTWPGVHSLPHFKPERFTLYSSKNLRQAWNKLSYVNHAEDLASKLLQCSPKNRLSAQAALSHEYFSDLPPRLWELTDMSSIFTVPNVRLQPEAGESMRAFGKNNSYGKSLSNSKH

[11] = biological target: Prostaglandin G/H synthase 1 (Homo sapiens) (UniProt P23219); experiment: COX1(h) Eurofins-Cerep enzyme and uptake assay; conditions: Compound concentration 10.0 uM
[12] = biological target: Sodium- and chloride-dependent GABA transporter 1 (Rattus norvegicus) (UniProt P23978); experiment: GABA transporter Eurofins-Cerep binding assay; parameters: ligand concentration 10 nM; conditions: filed as antagonist, Compound concentration 10.0 uM
[13] = biological target: Glycogen synthase kinase-3 alpha (Homo sapiens) (UniProt P49840); conditions: Compound concentration 1000.0 nM
Chain of Glycogen synthase kinase-3 alpha (Homo sapiens) (P49840 2-483 limits assumed): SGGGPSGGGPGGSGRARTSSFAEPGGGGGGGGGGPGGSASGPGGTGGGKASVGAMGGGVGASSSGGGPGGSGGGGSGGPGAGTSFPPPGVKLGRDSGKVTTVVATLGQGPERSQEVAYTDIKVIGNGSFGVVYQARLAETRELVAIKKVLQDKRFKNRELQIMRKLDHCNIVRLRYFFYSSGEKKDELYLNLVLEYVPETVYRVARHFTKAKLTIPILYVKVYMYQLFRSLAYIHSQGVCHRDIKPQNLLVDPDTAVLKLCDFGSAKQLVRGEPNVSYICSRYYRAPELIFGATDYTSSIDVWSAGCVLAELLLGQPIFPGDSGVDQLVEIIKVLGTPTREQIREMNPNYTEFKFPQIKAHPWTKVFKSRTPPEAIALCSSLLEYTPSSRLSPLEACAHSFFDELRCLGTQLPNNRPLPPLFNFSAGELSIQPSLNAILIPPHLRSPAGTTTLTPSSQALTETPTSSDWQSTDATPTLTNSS

[14] = biological target: T1, Muscarinic acetylcholine receptor M4 (Homo sapiens) (UniProt P08173); experiment: M4 (h) Eurofins-Cerep binding assay; parameters: ligand concentration 0.2 nM; conditions: filed as antagonist, Compound concentration 10.0 uM
T1 sequence (whole entry): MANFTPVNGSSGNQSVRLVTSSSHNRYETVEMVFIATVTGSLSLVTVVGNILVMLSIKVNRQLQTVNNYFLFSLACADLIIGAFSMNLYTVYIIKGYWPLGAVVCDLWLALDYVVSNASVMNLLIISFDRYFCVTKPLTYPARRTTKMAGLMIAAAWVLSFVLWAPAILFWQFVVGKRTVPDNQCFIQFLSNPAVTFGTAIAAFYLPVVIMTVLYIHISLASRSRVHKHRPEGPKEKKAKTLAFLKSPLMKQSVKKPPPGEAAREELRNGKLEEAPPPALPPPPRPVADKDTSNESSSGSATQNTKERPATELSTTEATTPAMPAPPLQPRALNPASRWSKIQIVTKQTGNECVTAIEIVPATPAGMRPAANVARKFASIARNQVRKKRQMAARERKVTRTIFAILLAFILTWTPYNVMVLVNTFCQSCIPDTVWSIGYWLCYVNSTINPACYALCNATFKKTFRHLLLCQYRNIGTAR

[15] = biological target: Phosphatidylinositol 4-phosphate 5-kinase type-1 gamma (Homo sapiens) (UniProt O60331); conditions: Compound concentration 1000.0 nM
[16] = biological target: Mitogen-activated protein kinase 13 (Homo sapiens) (UniProt O15264); conditions: Compound concentration 1000.0 nM
[17] = biological target: T2, 5-hydroxytryptamine receptor 3A (Homo sapiens) (UniProt P46098); experiment: 5-HT3 (h) Eurofins-Cerep binding assay; parameters: ligand concentration 0.5 nM; conditions: filed as antagonist, Compound concentration 10.0 uM
T2 sequence (whole entry): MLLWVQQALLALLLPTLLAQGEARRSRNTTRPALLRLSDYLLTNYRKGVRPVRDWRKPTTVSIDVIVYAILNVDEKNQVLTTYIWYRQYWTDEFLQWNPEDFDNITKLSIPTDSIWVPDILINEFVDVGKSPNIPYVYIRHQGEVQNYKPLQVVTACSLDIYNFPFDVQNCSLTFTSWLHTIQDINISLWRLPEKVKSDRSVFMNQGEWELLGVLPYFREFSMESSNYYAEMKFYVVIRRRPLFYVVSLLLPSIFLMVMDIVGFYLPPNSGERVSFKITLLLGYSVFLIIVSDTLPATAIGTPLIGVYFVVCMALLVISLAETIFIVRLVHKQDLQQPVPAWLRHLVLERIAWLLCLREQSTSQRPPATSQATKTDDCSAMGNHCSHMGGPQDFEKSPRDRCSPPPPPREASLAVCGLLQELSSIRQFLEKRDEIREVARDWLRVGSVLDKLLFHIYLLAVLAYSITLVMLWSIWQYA

[18] = biological target: Fibroblast growth factor receptor 3 (Homo sapiens) (UniProt P22607); conditions: Compound concentration 1000.0 nM
[19] = biological target: Serine/threonine-protein kinase mTOR (Homo sapiens) (UniProt P42345); conditions: Compound concentration 1000.0 nM
[20] = biological target: Glutamate NMDA receptor (Rattus norvegicus) (UniProt P35439+Q00959+Q00960+Q00961+Q62645+Q8VHN2+Q9R1M7); experiment: PCP Eurofins-Cerep binding assay; format: protein-complex assay; parameters: ligand concentration 10 nM; conditions: filed as antagonist, Compound concentration 10.0 uM
[21] = biological target: Tyrosine-protein kinase FRK (Homo sapiens) (UniProt P42685); conditions: Compound concentration 1000.0 nM
[22] = biological target: Serine/threonine-protein kinase Nek9 (Homo sapiens) (UniProt Q8TD19); conditions: Compound concentration 1000.0 nM
Chain of Serine/threonine-protein kinase Nek9 (Homo sapiens) (Q8TD19 whole entry): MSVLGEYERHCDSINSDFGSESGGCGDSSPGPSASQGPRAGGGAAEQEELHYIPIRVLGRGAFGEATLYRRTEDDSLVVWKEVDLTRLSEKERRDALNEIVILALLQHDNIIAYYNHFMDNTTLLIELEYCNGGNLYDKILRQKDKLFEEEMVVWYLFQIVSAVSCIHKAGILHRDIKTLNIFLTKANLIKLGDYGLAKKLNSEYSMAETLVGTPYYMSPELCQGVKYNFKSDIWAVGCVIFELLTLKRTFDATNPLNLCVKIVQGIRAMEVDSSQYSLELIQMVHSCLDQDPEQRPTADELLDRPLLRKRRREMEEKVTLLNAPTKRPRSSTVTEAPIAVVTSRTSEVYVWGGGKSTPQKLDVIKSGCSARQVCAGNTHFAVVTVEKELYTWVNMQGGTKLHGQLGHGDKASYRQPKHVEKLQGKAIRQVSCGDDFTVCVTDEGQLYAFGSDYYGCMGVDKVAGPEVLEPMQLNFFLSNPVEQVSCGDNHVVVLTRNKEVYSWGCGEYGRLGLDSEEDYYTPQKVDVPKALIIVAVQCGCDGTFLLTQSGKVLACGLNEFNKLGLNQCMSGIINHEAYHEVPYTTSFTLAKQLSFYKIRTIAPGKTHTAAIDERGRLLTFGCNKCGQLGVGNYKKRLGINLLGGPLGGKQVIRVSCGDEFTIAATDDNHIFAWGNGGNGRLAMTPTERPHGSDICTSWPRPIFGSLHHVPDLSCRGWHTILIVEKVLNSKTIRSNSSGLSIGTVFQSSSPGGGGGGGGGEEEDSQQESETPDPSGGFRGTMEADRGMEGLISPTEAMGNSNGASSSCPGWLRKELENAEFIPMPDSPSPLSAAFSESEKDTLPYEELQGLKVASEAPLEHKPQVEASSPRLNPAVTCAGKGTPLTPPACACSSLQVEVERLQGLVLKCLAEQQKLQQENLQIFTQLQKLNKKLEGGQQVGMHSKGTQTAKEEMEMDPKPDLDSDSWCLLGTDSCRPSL

[23] = biological target: Serine/threonine-protein kinase TAO1 (Homo sapiens) (UniProt Q7L7X3); conditions: Compound concentration 1000.0 nM
[24] = biological target: MAP kinase-interacting serine/threonine-protein kinase 2 (Homo sapiens) (UniProt Q9HBH9); conditions: Compound concentration 1000.0 nM
Chain of MAP kinase-interacting serine/threonine-protein kinase 2 (Homo sapiens) (Q9HBH9 whole entry, looked up): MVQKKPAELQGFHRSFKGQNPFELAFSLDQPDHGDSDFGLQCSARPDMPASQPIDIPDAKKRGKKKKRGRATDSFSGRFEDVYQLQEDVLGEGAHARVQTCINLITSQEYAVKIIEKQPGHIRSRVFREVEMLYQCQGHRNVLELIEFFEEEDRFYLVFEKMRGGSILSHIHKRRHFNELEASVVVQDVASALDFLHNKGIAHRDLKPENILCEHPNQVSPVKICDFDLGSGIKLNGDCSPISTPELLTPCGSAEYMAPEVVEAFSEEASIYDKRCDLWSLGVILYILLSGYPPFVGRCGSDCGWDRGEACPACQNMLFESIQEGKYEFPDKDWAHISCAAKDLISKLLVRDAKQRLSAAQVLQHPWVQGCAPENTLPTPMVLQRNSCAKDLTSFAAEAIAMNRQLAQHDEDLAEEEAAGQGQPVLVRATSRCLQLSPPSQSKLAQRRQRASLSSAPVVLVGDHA

[25] = biological target: Serine/threonine-protein kinase Sgk2 (Homo sapiens) (UniProt Q9HBY8); conditions: Compound concentration 1000.0 nM
Chain of Serine/threonine-protein kinase Sgk2 (Homo sapiens) (Q9HBY8 whole entry): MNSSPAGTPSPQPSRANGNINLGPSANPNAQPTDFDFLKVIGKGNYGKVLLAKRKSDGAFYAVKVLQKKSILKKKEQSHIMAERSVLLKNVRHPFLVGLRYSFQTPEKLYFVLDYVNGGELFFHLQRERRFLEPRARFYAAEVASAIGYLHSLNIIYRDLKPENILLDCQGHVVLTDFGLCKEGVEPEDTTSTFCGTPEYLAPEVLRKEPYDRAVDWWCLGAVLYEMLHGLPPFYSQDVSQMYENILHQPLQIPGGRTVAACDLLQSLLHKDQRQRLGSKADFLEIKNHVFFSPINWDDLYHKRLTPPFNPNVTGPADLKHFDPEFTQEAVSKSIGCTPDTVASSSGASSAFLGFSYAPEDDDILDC

Chain of Serine/threonine-protein kinase 4 (Homo sapiens) (Q13043 whole entry): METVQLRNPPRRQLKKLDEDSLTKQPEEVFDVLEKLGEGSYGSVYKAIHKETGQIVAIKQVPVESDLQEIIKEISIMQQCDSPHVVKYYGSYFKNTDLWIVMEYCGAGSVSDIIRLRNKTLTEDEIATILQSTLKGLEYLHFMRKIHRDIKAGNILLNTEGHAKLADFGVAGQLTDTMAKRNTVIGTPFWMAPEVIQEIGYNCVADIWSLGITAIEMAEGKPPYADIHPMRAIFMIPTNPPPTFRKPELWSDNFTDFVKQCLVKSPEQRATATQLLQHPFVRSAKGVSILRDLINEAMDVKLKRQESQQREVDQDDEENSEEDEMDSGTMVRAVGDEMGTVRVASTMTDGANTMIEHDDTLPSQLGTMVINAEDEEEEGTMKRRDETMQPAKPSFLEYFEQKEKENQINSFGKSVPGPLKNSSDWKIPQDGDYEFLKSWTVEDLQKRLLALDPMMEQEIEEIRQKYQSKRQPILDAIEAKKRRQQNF

## COc1ccc2c(c1)O[C@@H](c1ccc(OC)c(OC)c1)C[C@H]2NC(=O)C1(c2ccc3c(c2)OC(F)(F)O3)CC1 [A-1596586]
[1]
  residual activity: 89%
[2]
  residual activity: 95%
[3]
  residual activity: 79%
[4]
  residual activity: 78%
[5]
  residual activity: 91%
[6]
  residual activity: 95%
[7]
  residual activity: 98%
[8]
  residual activity: 100%
[9]
  residual activity: 100%
[10]
  residual activity: 93%
[11]
  % Inhibition of Control Values (Mean n=2): -7.9%
[12]
  % Inhibition of Control Specific Binding (Mean n=2): -17.9%
[13]
  residual activity: 100%
[14]
  % Inhibition of Control Specific Binding (Mean n=2): 6.1%
[15]
  residual activity: 92%
[16]
  residual activity: 97%
[17]
  % Inhibition of Control Specific Binding (Mean n=2): -3%
[18]
  residual activity: 89%
[19]
  residual activity: 100%
[20]
  % Inhibition of Control Specific Binding (Mean n=2): -6.1%
[21]
  residual activity: 100%
[22]
  residual activity: 100%
[23]
  residual activity: 93%
[24]
  residual activity: 93%
[25]
  residual activity: 94%

## COc1ccc2c(c1)O[C@H](c1ccc(OC)c(OC)c1)C[C@@H]2NC(=O)C1(c2ccc3c(c2)OC(F)(F)O3)CC1 [A-1596584]
[1]
  residual activity: 100%
[2]
  residual activity: 95%
[3]
  residual activity: 95%
[4]
  residual activity: 88%
[5]
  residual activity: 100%
[6]
  residual activity: 100%
[7]
  residual activity: 100%
[8]
  residual activity: 100%
[9]
  residual activity: 98%
[10]
  residual activity: 98%
[11]
  % Inhibition of Control Values (Mean n=2): -6.7%
[12]
  % Inhibition of Control Specific Binding (Mean n=2): -15.1%
[13]
  residual activity: 100%
[14]
  % Inhibition of Control Specific Binding (Mean n=2): -3.9%
[15]
  residual activity: 100%
[16]
  residual activity: 100%
[17]
  % Inhibition of Control Specific Binding (Mean n=2): 0.8%
[18]
  residual activity: 100%
[19]
  residual activity: 100%
[20]
  % Inhibition of Control Specific Binding (Mean n=2): 4%
[21]
  residual activity: 100%
[22]
  residual activity: 100%
[23]
  residual activity: 100%
[24]
  residual activity: 100%
[25]
  residual activity: 100%
